In ChEMBL document CHEMBL1152433, “Pyrano[3,2-c]quinoline-6-chlorotacrine hybrids as a novel family of acetylcholinesterase- and beta-amyloid-directed anti-Alzheimer compounds” (J Med Chem, 2009):
Active and inactive are the calls of the source. No cut-off for these calls is given here.

What was measured:
[1] = biological target: T1, Acetylcholinesterase (Bos taurus, UniProt P23795); experiment: Inhibition of bovine AChE by Ellman's method
T1 sequence (P23795 whole entry): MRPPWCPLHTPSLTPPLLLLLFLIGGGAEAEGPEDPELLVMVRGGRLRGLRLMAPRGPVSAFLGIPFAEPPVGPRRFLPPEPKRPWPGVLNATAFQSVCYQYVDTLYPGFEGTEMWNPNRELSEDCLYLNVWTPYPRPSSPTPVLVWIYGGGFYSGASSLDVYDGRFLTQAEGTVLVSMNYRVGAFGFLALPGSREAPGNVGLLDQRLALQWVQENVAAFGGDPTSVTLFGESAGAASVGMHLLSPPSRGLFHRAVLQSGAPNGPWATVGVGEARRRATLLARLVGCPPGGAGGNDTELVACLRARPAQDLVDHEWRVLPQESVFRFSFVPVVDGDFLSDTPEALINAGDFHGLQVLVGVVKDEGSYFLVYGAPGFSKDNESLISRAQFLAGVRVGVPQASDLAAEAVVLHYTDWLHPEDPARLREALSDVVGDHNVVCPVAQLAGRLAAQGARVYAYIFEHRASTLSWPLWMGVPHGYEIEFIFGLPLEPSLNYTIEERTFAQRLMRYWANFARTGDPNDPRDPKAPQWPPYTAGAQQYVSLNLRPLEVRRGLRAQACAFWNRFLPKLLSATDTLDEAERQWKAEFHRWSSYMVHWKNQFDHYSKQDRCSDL

[2] = biological target: Cholinesterase (Homo sapiens, UniProt P06276); experiment: Inhibition of human serum BChE by Ellman's method
[3] = biological target: Amyloid-beta precursor protein (Homo sapiens) (UniProt P05067); experiment: Inhibition of self-induced amyloid beta (1-42) aggregation at 50 uM by thioflavin T fluorescence method
[4] = biological target: T2, Beta-secretase 1 (Homo sapiens, UniProt P56817); experiment: Inhibition of human recombinant BACE1 at 2.5 uM by fluorimetric assay
[5] = biological target: T3, Acetylcholinesterase (Homo sapiens, UniProt P22303)
Description: Inhibition of AChE in human erythrocytes by Ellman's method

[6] = in vitro; settings: PAMPA
Description: Membrane permeability dissolved in PBS/EtOH (70:30) mixture by PAMPA-BBB assay

[7] = in vitro; settings: PAMPA; remark: listed apart in the source
Description: Membrane permeability dissolved in PBS/EtOH (80:20) mixture by PAMPA-BBB assay

[8] = biological target: T2, Beta-secretase 1; experiment: Inhibition of human recombinant BACE1 by fluorimetric assay
[9] = biological target: T3, Acetylcholinesterase; experiment: Inhibition of human recombinant AChE by Lineweaver-Burke reciprocal plot analysis

Chain of Amyloid-beta precursor protein (Homo sapiens) (P05067 whole entry): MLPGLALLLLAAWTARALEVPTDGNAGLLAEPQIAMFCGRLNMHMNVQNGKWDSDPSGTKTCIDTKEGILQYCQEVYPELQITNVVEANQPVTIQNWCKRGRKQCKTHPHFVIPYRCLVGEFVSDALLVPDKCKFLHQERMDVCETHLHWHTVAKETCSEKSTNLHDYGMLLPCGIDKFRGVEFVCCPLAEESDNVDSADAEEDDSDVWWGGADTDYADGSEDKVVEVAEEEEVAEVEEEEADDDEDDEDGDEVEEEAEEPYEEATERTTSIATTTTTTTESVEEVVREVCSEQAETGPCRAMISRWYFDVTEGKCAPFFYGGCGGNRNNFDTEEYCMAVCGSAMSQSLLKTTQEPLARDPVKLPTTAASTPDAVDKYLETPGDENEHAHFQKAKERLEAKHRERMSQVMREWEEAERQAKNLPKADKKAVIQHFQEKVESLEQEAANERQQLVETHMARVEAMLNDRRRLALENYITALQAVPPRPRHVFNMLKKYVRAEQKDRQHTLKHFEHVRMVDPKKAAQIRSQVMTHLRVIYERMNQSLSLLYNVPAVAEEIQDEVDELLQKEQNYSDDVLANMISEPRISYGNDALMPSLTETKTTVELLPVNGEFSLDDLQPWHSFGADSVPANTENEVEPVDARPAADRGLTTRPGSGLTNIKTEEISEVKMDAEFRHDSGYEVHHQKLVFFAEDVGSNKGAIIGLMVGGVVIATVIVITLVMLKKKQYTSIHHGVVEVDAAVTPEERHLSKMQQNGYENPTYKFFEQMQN
T2 sequence (P56817 whole entry): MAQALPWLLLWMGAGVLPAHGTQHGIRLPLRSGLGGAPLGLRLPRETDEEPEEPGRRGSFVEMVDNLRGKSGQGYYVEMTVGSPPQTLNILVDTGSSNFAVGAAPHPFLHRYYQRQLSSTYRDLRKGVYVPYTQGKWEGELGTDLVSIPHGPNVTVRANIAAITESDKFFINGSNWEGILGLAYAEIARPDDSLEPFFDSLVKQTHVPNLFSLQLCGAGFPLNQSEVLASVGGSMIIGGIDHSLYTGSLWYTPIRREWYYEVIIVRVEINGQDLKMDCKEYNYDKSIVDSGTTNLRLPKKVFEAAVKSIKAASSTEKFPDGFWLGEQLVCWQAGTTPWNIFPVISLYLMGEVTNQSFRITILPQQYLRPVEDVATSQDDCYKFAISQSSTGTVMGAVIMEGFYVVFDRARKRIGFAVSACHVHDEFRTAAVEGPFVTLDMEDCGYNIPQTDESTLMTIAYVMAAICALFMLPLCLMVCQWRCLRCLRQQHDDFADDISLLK
Chain of Cholinesterase (P06276 whole entry): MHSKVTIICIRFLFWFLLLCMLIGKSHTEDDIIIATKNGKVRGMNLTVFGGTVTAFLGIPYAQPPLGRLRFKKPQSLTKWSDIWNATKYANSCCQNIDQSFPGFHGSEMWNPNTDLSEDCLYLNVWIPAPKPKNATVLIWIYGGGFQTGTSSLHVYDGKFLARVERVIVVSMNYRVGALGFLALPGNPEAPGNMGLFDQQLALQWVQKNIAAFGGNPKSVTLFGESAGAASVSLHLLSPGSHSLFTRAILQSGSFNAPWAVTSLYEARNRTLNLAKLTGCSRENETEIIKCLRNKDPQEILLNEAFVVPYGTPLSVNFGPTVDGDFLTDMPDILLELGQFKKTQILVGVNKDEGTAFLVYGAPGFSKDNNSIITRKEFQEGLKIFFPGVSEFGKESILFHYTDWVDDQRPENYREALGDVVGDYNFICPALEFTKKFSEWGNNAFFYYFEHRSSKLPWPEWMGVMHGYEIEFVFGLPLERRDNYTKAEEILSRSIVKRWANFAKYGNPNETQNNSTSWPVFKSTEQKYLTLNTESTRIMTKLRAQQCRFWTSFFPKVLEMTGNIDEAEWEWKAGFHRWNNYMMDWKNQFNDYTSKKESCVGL
T3 sequence (P22303 whole entry): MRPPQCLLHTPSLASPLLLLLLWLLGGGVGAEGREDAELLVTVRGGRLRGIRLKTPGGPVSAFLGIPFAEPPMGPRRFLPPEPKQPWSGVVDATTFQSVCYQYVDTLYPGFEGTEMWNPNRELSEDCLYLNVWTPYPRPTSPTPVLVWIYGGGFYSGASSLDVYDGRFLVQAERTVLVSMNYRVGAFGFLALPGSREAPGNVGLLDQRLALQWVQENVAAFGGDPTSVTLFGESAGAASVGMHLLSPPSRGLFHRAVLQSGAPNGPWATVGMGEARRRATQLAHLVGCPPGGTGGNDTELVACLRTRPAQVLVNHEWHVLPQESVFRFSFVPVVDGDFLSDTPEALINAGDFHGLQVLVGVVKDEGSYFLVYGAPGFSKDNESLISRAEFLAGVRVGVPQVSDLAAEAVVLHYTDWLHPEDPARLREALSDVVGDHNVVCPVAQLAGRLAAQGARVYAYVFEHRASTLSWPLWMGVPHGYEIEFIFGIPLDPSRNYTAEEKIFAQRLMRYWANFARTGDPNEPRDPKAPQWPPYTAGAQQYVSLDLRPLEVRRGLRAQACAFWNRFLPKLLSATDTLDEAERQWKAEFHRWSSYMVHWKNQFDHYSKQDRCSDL

SMILES	IC50 [1] [nM]	IC50 [2] [nM]	inhibition [3]	inhibition [4]	IC50 [5] [nM]	Papp [6] [×10⁻⁶ cm/s]	Papp [7] [×10⁻⁶ cm/s]	IC50 [8] [nM]	Ki [9] [nM]
Cl.Cl.O=C(CCc1ccc2nc(-c3ccccc3)c3c(c2c1)OCCC3)NCCCCCNc1c2c(nc3cc(Cl)ccc13)CCCC2	23.9	290	12.2%	inactive	9.64	10.6			
Cl.Nc1c2c(nc3cc(Cl)ccc13)CCCC2			7.1%	inactive			19.8		
O=C(NCCCCCCCCCCNc1c2c(nc3cc(Cl)ccc13)CCCC2)c1ccc2nc(-c3ccc(Cl)cc3)c3c(c2c1)OCCC3	93.7	1620	20.5%	inactive	50				
CN(C)CCCN1c2ccccc2Sc2ccc(Cl)cc21 [CHLORPROMAZINE]						13.6	8.5		
CCOC(=O)c1ccc2nc(-c3ccc(Cl)cc3)c3c(c2c1)OCCC3	> 10000	> 10000			> 10000				
Cl.Cl.Cl.O=C(CCc1ccc2nc(-c3ccccc3)c3c(c2c1)OCCC3)NCCCCCCCNc1c2c(nc3cc(Cl)ccc13)CCCC2	29.9	234	49.1%	34.4%	14.4	10.2			
CC[N+](C)(CC)CCC[n+]1c(-c2ccccc2)c2cc(N)ccc2c2ccc(N)cc21 [PROPIDIUM]	6290		89.8%						
Cl.Cl.Cl.Cl.O=C(NCCCCCCNc1c2c(nc3cc(Cl)ccc13)CCCC2)c1ccc2nc(-c3ccc(Cl)cc3)c3c(c2c1)OCCC3	20.4	1070	16.4%	inactive	19.2	14.9			
Cl.Cl.Cl.O=C(CCc1ccc2nc(-c3ccccc3)c3c(c2c1)OCCC3)NCCCCCCCCNc1c2c(nc3cc(Cl)ccc13)CCCC2	34.1	1080	47.3%	77.8%	14	10.1		1810	
O=C(NCCCCCCCCCNc1c2c(nc3cc(Cl)ccc13)CCCC2)c1ccc2nc(-c3ccc(Cl)cc3)c3c(c2c1)OCCC3	24	1390			24.9				
Cl.Cl.Cl.O=C(CCc1ccc2nc(-c3ccccc3)c3c(c2c1)OCCC3)NCCCCCCNc1c2c(nc3cc(Cl)ccc13)CCCC2	30.8	218	30.8%	19.6%	11.1		13.2		
COC(=O)CCc1ccc2nc(-c3ccccc3)c3c(c2c1)OCCC3	> 10000		inactive	inactive					
O=C(NCCCCCCCCNc1c2c(nc3cc(Cl)ccc13)CCCC2)c1ccc2nc(-c3ccc(Cl)cc3)c3c(c2c1)OCCC3	10.4	331	21.5%	18.5%	7.03				1.91
Cl.Cl.Cl.O=C(CCc1ccc2nc(-c3ccccc3)c3c(c2c1)OCCC3)NCCCCNc1c2c(nc3cc(Cl)ccc13)CCCC2	48.1	586	45.3%	inactive	16.6		15.1		
c1ccc2c(NCCCCCCCNc3c4c(nc5ccccc35)CCCC4)c3c(nc2c1)CCCC3								7500	
Cl.Cl.Cl.Cl.O=C(NCCCCCCCNc1c2c(nc3cc(Cl)ccc13)CCCC2)c1ccc2nc(-c3ccc(Cl)cc3)c3c(c2c1)OCCC3	10.3	1930	28.6%	14.5%	18.3	17.7			
